Test results taken from article PMC10650955, “α-Aminophosphonate inhibitors of metallo-β-lactamases NDM-1 and VIM-2” (RSC Medicinal Chemistry, 2023).
Structures can show the parent of a compound that is named as a salt.

Experiments:
NDM-1 = target: T1, NDM-1 (Klebsiella pneumoniae, UniProt C7C422); experiment: Dose rate inhibition studies for IC50 determination, NDM-1 enzymatic assay; assay type: biochemical; conditions: inhibitor 0-800 μM, 3 parallel measurements, N.I. = no enzyme inhibitory activity observed; for IC50: Enzyme IC50 NDM-1, 10 nM NDM-1, 100 μM ZnCl2, imipenem substrate; for Enzyme IC50 NDM-1: 10 nM NDM-1, 100 μM ZnCl2, imipenem substrate
T1 construct: made in house
Protocol: (§1) The […] synthesized compounds 5a–l were tested for their inhibitory activities against NDM-1, VIM-2 (Table 1), and GIM-1 in an in vitro enzymatic assay (ESI ^†).[41] The inhibitory activity was measured using enzyme concentrations of 0.1 nM VIM-2, 10 nM NDM-1 or 1 nM GIM-1, with an excess Zn(II) (100 μM, see Experimental methods), with inhibitor compounds with concentrations from 0 to 800 μM. Each data point was measured in triplicates. […] This is in line with previous reports.[42,43]
(§2) A 100 μl solution with buffer (50 mM HEPES (pH 7.2), 100 μM ZnCl2, 2.5% DMSO), purified enzyme (0.1 nM VIM-2, 10 nM NDM-1 or 1 nM GIM-1) and 800–0 μM inhibitor was incubated in a 96 well plate at 25 °C for 5 min. In addition, the enzyme buffer contained 400 μg ml^−1 bovine serum albumin (BSA) to prevent protein unfolding and loss of activity due to low concentrations.[67,68] 100 μM of the reporter substrate nitrocefin (VIM-2, GIM-1) or imipenem (NDM-1) was added to the enzyme–inhibitor solution and the increase in absorbance at 482 nm (nitrocefin) or 300 nm (imipenem) was recorded on a Spectramax M4 spectrophotometer (Molecular Devices). Each data point was performed in triplicates and the initial velocity for each inhibitor concentration was analyzed by a log [inhibitor] vs. response curve fitting to calculate IC50 in GraphPad Prism 9.2 software.

VIM-2 = target: T2, VIM-2 (Escherichia coli, UniProt Q5U7L7); experiment: Dose rate inhibition studies for IC50 determination, VIM-2 enzymatic assay; assay type: biochemical; conditions: Enzyme IC50 VIM-2, 0.1 nM VIM-2, 100 μM ZnCl2, nitrocefin substrate, inhibitor 0-800 μM, 3 parallel measurements; N.I. = no enzyme inhibitory activity observed
T2 construct: made in house
Protocol: as §1, §2

15N-labelled NDM-1 = target: T3, 15N-labelled NDM-1 (Klebsiella pneumoniae, UniProt C7C422); experiment: 1H,15N HSQC NMR chemical shift perturbation titration, NDM-1; assay type: binding
T3 construct: made in house
Protocol: (§3) Solution NMR spectroscopy is a powerful tool to assess protein–ligand interactions under close to physiological conditions.[47] We, therefore, performed NMR chemical shift perturbation (CSP, for details, see section S8, ESI ^†) experiments to identify the amino acid residues of NDM-1 and VIM-2 that are involved in inhibitor binding, making use of the previously published protein assignments.[48,49] Titrations were conducted using ^15N-labelled proteins with 0, 0.5, 1, 2, 4, 8, and 16 equiv. of 5 inhibitors for NDM-1 and of 7 inhibitors for VIM-2.
(§4) For the titrations, ^15N-labelled NDM-1 and ^15N-labelled VIM-2 (250 μM), and titrated ligands (0.5 equiv. in 1 μL) were prepared in the same buffer as the protein (20 mM KPO4, 0.1 mM ZnCl2, pH 7.0 with 10% D2O and 2.5% DMSO-d6). ^1H,^15N HSQC spectra were acquired with 128 × 1024 complex points (F1 × F2) and spectral width of 9090 × 2740 Hz on ^15N-labeled NDM-1/VIM-2 and with every titration step up to 1 : 16 ratio between protein : ligand (0, 0.5, 1, 2, 4, 8, and 16 equiv. of ligand). All experiments were recorded on a Bruker 600 MHz spectrometer at 310 K equipped with a 5 mm TCI cryogenic probe. The NMR data were processed on the MestReNova software with the Mnova Binding plugin. The weighted average chemical shift perturbations (CSP) for the backbone amides were calculated from the observed chemical shift differences in the proton and nitrogen dimensions using the equation (chemical shift scaling factors: FH = 1, FN = 0.156) CSP = Δδ1H,15N = [drawing 13] .
(§5) 7. Chemical shift perturbation histograms
(§6) Chemical shift perturbation was calculated according equation (1) 2
(§7) CSP = Δδ(1H,15N) = √(Δδ1H2 + (1⁄R × Δδ15N2) Rscale = 6.5 (1)
(§8) Where Δδ1H is the chemical shift change for proton dimension, Δδ15N is the chemical shift change for nitrogen dimension, Rscale is a
(§9) The chemical shift perturbations (CSP) were classified as significant (SSP) when the observed Δδ(1H,15N) was greater than the population
(§10) mean plus the standard deviation (µ+1σ) – solid line; (µ+2σ) – dashed line, and (µ+3σ) – dashed line.
(§11) Further on, Kd was calculated according: 3
(§12) ([P]+[L]+Kd)− √([P]+[L]+Kd)2−4[P][L]
(§13) ΔδmaxΔδobs = Δδmax 2[P] (2)
(§14) Where Kd is the dissociation constant, [P] and [L] are protein and ligand concentrations, respectively. Δδmax were estimated in
(§15) MestReNova by extrapolation of the obser ved chemical shift differences Δδobs.

15N-labelled VIM-2 = target: T4, 15N-labelled VIM-2 (Escherichia coli, UniProt Q5U7L7); experiment: 1H,15N HSQC NMR chemical shift perturbation titration, VIM-2; assay type: binding; conditions: VIM-2 Kd, 0-16 equiv. ligand, pH 7.0, 310 K
T4 construct: made in house
Protocol: as §3, §4, §5, §6, §7, §8, §9, §10, §11, §12, §13, §14, §15

T3 sequence (C7C422 29-270 limits assumed): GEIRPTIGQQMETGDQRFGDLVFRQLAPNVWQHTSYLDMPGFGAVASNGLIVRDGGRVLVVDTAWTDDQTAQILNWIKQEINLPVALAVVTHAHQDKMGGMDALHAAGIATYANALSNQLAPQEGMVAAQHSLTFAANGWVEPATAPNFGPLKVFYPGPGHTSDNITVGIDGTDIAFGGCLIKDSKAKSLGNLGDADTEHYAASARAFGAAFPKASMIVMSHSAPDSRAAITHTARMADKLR
T1 sequence (C7C422 29-270 limits assumed): as above

## O=C(NC(C1CCCCN1)P(=O)(O)O)c1cc2ccccc2s1 (centres unmarked) [Compound 5g-2, ((Benzo[b]thiophene-2-carboxamido)(piperidin-2-yl)methyl)phosphonic acid hydrochloride]
NDM-1
  IC50: 0.0468 ± 0.0055 mM
VIM-2
  IC50: 0.0041 ± 0.0021 mM

## O=C(Cc1cccs1)NC(C1CCCCN1)P(=O)(O)O (centres unmarked) [Compound 5i-2, (Piperidin-2-yl(2-(thiophen-2-yl)acetamido)methyl)phos-phonic acid hydrochloride]
15N-labelled NDM-1; Estimated binding constant (Kd), residue 070F, Table S5, per-residue fit, NDM-1 070F
  Kd: 4.9 mM
15N-labelled NDM-1; Estimated binding constant (Kd), residue 108E, Table S5, per-residue fit, NDM-1 108E
  Kd: 2.03 mM
15N-labelled NDM-1; Estimated binding constant (Kd), residue 119T, Table S5, per-residue fit, NDM-1 119T
  Kd: 26.4 mM
15N-labelled NDM-1; Estimated binding constant (Kd), residue 124D, Table S5, per-residue fit, NDM-1 124D
  Kd: 14.1 mM
15N-labelled NDM-1; Estimated binding constant (Kd), residue 127G, Table S5, per-residue fit, NDM-1 127G
  Kd: 1.76 mM
15N-labelled NDM-1; Estimated binding constant (Kd), residue 152E, Table S5, per-residue fit, NDM-1 152E
  Kd: 1.18 mM
15N-labelled NDM-1; Estimated binding constant (Kd), residue 159H, Table S5, per-residue fit, NDM-1 159H
  Kd: 8.3 mM
15N-labelled NDM-1; Estimated binding constant (Kd), residue 160S, Table S5, per-residue fit, NDM-1 160S
  Kd: 17.6 mM
15N-labelled NDM-1; Estimated binding constant (Kd), residue 194I, Table S5, per-residue fit, NDM-1 194I
  Kd: 2.49 mM
15N-labelled NDM-1; Estimated binding constant (Kd), residue 197G, Table S5, per-residue fit, NDM-1 197G
  Kd: 15.2 mM
15N-labelled NDM-1; Estimated binding constant (Kd), residue 205F, Table S5, per-residue fit, NDM-1 205F
  Kd: 6.84 mM
15N-labelled NDM-1; Estimated binding constant (Kd), residue 206G, Table S5, per-residue fit, NDM-1 206G
  Kd: 6.81 mM
15N-labelled NDM-1; Estimated binding constant (Kd), residue 211K, Table S5, per-residue fit, NDM-1 211K
  Kd: 17.1 mM
15N-labelled NDM-1; Estimated binding constant (Kd), residue 214K, Table S5, per-residue fit, NDM-1 214K
  Kd: 0.78 mM
15N-labelled NDM-1; Estimated binding constant (Kd), residue 217S, Table S5, per-residue fit, NDM-1 217S
  Kd: 16.4 mM
15N-labelled NDM-1; Estimated binding constant (Kd), residue 228H, Table S5, per-residue fit, NDM-1 228H
  Kd: 10.1 mM
15N-labelled NDM-1; Estimated binding constant (Kd), residue 229Y, Table S5, per-residue fit, NDM-1 229Y
  Kd: 2.3 mM
15N-labelled NDM-1; Estimated binding constant (Kd), residue 230A, Table S5, per-residue fit, NDM-1 230A
  Kd: 2.71 mM
15N-labelled NDM-1; Estimated binding constant (Kd), residue 232S, Table S5, per-residue fit, NDM-1 232S
  Kd: 5.57 mM
15N-labelled NDM-1; Estimated binding constant (Kd), residue 248M, Table S5, per-residue fit, NDM-1 248M
  Kd: 2.58 mM
15N-labelled NDM-1; Estimated binding constant (Kd), residue 249S, Table S5, per-residue fit, NDM-1 249S
  Kd: 8.45 mM
15N-labelled NDM-1; Estimated binding constant (Kd), residue 251S, Table S5, per-residue fit, NDM-1 251S
  Kd: 3.38 mM
15N-labelled NDM-1; Estimated binding constant (Kd), residue 254D, Table S5, per-residue fit, NDM-1 254D
  Kd: 5.01 mM
15N-labelled NDM-1; Estimated binding constant (Kd), residue 255S, Table S5, per-residue fit, NDM-1 255S
  Kd: 1.66 mM
15N-labelled NDM-1; Estimated binding constant (Kd), residue 263A_266A, Table S5, per-residue fit, NDM-1 263A_266A
  Kd: 0.69 mM
15N-labelled NDM-1; NDM-1 Kd, NMR chemical shift perturbation, 0-16 equiv. ligand, pH 7.0, 310 K
  Kd: 1.4 ± 0.1 mM
NDM-1
  IC50: 0.271 ± 0.034 mM
VIM-2
  IC50: 0.328 ± 0.116 mM
15N-labelled VIM-2
  Kd: 1.1 ± 0.1 mM

## Cl.O=C(Cc1cc2ccccc2s1)NC(C1CCCCN1)P(=O)(O)O (single isomer, unassigned) [Compound 5k-1, ((2-(Benzo[b]thiophen-2-yl)acetamido)(piperidin-2-yl)methyl)phosphonic acid hydrochloride]
NDM-1
  Enzyme IC50 NDM-1: N.I.
VIM-2
  IC50: 0.0566 ± 0.001 mM

## Cl.O=C(NC(C1CCCCN1)P(=O)(O)O)c1scc2c1CCCC2 (single isomer, unassigned) [Compound 5f-2, (Piperidin-2-yl(4,5,6,7-tetrahydrobenzo[c]thiophene-1-carboxamido)methyl)phosphonic acid hydrochloride]
NDM-1
  Enzyme IC50 NDM-1: N.I.
VIM-2
  IC50: 0.0188 ± 0.0005 mM
